pKd: −log10 of the molar value. Activity calls are given as the source filed them. The calls are words filed in the database; no cut-off is given here.
Columns and labels:
Homo sapiens [1] = organism: Homo sapiens; test: Inhibition of [15N]-labeled humanized-Xenopus MDM2 (13-119 amino acids) interaction with p53 at 2 mM by NMR method
Homo sapiens [2] = organism: Homo sapiens; test: Inhibition of Humanized-Xenopus MDM2 (13-119 amino acids) interaction with p53 at 1 to 2.5 mM by SPR analysis
Homo sapiens [3] = organism: Homo sapiens; test: Inhibition of [15N]-labeled humanized-Xenopus MDM2 (13-119 amino acids) interaction with p53 at 1 mM by NMR method
Homo sapiens [4] = organism: Homo sapiens; test: Inhibition of Humanized-Xenopus MDM2 (13-119 amino acids) interaction with p53 at 100 uM by SPR analysis
Homo sapiens [5] = organism: Homo sapiens; test: Inhibition of [15N]-labeled humanized-Xenopus MDM2 (13-119 amino acids) interaction with p53 at 0.4 mM by NMR method
[6] = Inhibition of Humanized-Xenopus MDM2 (13-119 amino acids) interaction with p53 by SPR analysis; design: species or system Homo sapiens
Homo sapiens [7] = organism: Homo sapiens; test: Inhibition of [15N]-labeled humanized-Xenopus MDM2 (13-119 amino acids) interaction with p53 at 0.5 mM by NMR method

| SMILES | inhibition (Homo sapiens [2]) | inhibition (Homo sapiens [3]) | pKd [6] | other results |
| --- | --- | --- | --- | --- |
| CCOc1cc(C(C)(C)C)ccc1-c1ncc[nH]1 | inactive | – | – | inhibition (Homo sapiens [1]): inactive |
| CCOc1cc(C(C)(C)C)ccc1C1=NCCN1C(=O)N1CCN(CCCS(C)(=O)=O)CC1 | – | inactive | – | inhibition (Homo sapiens [4]): inactive |
| CC1=N[C@@H](c2ccccc2)[C@@H](c2ccccc2)N1 | inactive | – | – | inhibition (Homo sapiens [1]): inactive |
| CC1=N[C@@H](c2ccc(Cl)cc2)[C@@H](c2ccc(Cl)cc2)N1 | – | – | 4.59 | inhibition (Homo sapiens [5]): Active |
| CC1=N[C@@](C)(c2ccc(Cl)cc2)[C@@](C)(c2ccc(Cl)cc2)N1C(=O)N1CCN(CCCS(C)(=O)=O)CC1 | – | Active | 4.85 | – |
| CCOc1cc(C(C)(C)C)ccc1C1=N[C@@](C)(c2ccc(Cl)cc2)[C@@](C)(c2ccc(Cl)cc2)N1 | – | – | 4.70 | inhibition (Homo sapiens [5]): Active |
| c1c[nH]cn1 | inactive | inactive | – | – |
| CCOc1cc(C(C)(C)C)ccc1C1=N[C@@](C)(c2ccc(Cl)cc2)[C@@](C)(c2ccc(Cl)cc2)N1C(=O)N1CCN(CCCS(C)(=O)=O)CC1 [RO-5045337] | – | – | 6.66 | inhibition (Homo sapiens [7]): Active |
| Clc1ccccc1 | inactive | inactive | – | – |
| CCOc1cc(C(C)(C)C)ccc1C1=NCC(c2ccc(Cl)cc2)N1 (configuration not stated) | – | – | – | inhibition (Homo sapiens [1]): Active; inhibition (Homo sapiens [4]): inactive |
| CCOc1cc(C(C)(C)C)ccc1C1=NC(c2ccccc2)CN1C(=O)N1CCN(CCCS(C)(=O)=O)CC1 (configuration not stated) | – | Active | 3.00 | – |

Source: ChEMBL document CHEMBL2406993, “Deconstruction of a nutlin: dissecting the binding determinants of a potent protein-protein interaction inhibitor” (ACS Med Chem Lett, 2013)
